In US6747044B2, “Neurokinin antagonists” (Boehringer Ingelheim Pharma KG, priority 2000, dated 2004) one finds Duration of activity data, which are given here for 7 compounds.

Where only a bound is given, the exact number is not on record here.

The target in this experiment is T1, NK1 receptor (Cavia porcellus, UniProt P30547).
T1 construct: Guinea pigs (300-500 g) were anaesthetised with pentobarbital (50 mg/kg i.p.); from tissue; host or cells: whole anaesthetised guinea pig (in vivo)
T1 sequence (P30547 whole entry): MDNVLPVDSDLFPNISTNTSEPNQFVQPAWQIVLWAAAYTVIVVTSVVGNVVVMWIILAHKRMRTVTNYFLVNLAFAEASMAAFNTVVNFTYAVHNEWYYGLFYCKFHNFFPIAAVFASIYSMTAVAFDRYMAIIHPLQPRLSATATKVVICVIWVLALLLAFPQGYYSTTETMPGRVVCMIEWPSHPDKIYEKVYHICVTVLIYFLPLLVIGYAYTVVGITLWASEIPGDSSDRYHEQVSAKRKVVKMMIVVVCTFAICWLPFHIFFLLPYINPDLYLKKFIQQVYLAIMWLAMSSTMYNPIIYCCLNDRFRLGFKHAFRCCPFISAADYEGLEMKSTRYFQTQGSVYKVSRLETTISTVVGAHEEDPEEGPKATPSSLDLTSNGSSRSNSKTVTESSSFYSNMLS
Kind of experiment: Inhibition of NK1-induced fall in blood pressure in anaesthetised guinea pigs (duration of activity). In kind it is in vivo, guinea pig. The settings on record: test substance intraduodenal, NK1-agonist 0.2 μmol/kg i.v. every 30 min for 6 to 8 hours. The method, then:
Determining the Duration of Activity
Inhibition of NK1-induced Fall in Blood Pressure in Anaesthetised Guinea Pigs
Guinea pigs (300-500 g) were anaesthetised with pentobarbital (50 mg/kg i.p.) and prepared for duodenal administration of the test substances and for measurement of the arterial blood pressure. A temporary drop in blood pressure was induced by the intravenous administration of an NK1-agonist (0.2 μmol/kg at 30 minute intervals). After the basal value of the blood pressure had been determined the test substances were administered by intraduodenal route. Then the NK1-agonist was administered intravenously every 30 min for 6 to 8 hours. The results were expressed as a percentage inhibition in the NK1-induced fall in blood pressure and the ED50 values were calculated by regression analysis.
As for `CN(CCc1cc(C(F)(F)F)cc(C(F)(F)F)c1)C(=O)C(c1ccccc1)N1CCC(N(C)CCCO)CC1` (stereo not shown) [Example 1, N-[2-(3,5-Bis-trifluoromethyl-phenyl)-ethyl]-2-{4-[(3-hydroxy-propyl)-methyl-amino]-piperidine-1-yl}-N-methyl-2-phenyl-acetamide], the Duration of activity is recorded as above 360 min.

Regarding `CN(CCc1cc(C(F)(F)F)cc(C(F)(F)F)c1)C(=O)C(c1ccccc1)N1CCC(NC(CO)CO)CC1` (stereo not shown) [Example 2, N-[2-(3,5-bis-trifluoromethyl-phenyl)-ethyl]-2-[4-(2-hydroxy-1-hydroxymethyl-ethylamino)-piperidin-1-yl]-N-methyl-2-phenylacetamide], the Duration of activity is listed as above 360 min.

`CN(CCc1cc(C(F)(F)F)cc(C(F)(F)F)c1)C(=O)C(c1ccccc1)N1CCC(N(C)CC2CC2)CC1` (stereo not shown) [Example 3, N-[2-(3,5-bis-trifluoromethyl-phenyl)-ethyl]-2-[4-(cyclopropylmethyl-methyl-amino)-piperidin-1-yl]-N-methyl-2-phenyl-acetamide] yielded a Duration of activity above 360 min.

With `CN(CCc1cc(C(F)(F)F)cc(C(F)(F)F)c1)C(=O)C(c1ccccc1)N1CCC(N(CCO)CCCO)CC1` (stereo not shown) [Example 4, N-[2-(3,5-bis-trifluoromethyl-phenyl)-ethyl]-2-{4-[(2-hydroxy-ethyl)-(3-hydroxy-propyl)-amino]-piperidin-1-yl}-N-methyl-2-phenyl-acetamide], the Duration of activity is on record as above 360 min.

Compound `CN(CCc1cc(C(F)(F)F)cc(C(F)(F)F)c1)C(=O)[C@H](c1ccccc1)N1CCC(N(CCCO)CC2CC2)CC1` [Example 5, (S)—N-[2-(3.5-bis-trifluoromethyl-phenyl)-ethyl]-2-{4-[cyclopropylmethyl-(3-hydroxy-propyl)-amino]-piperidin-1-yl}-N-methyl-2-phenyl-acetamide] gave a Duration of activity above 360 min.

`CN(CCc1cc(C(F)(F)F)cc(C(F)(F)F)c1)C(=O)[C@H](c1ccccc1)N1CCC(N(C)CCO)CC1` [Example B-1, reference compound] came in with a Duration of activity of 120 min.

Compound `CN(CCc1cc(C(F)(F)F)cc(C(F)(F)F)c1)C(=O)[C@H](c1ccccc1)N1CCC(N(CCO)CCO)CC1` [Example B-4, reference compound] returned a Duration of activity of 120 min.
